Legend:
[1] = test system: cardiomyocytes of obese ZSF1 rats; test: Unloaded shortening contractility of HFpEF myocytes; format: cell-based, rat; settings: 30-weeks aged obese ZSF1 rats, 2-hours treatment
Protocol: FIG. 16: Improved contraction and relaxation kinetics of HFpEF myocytes during unloaded shortening upon VASH inhibition or TTL overexpression in primary cardiomyocytes isolated from WKY, ZSF1-Lean, or ZSF1 Obese rats. A) Contraction amplitude, B) contraction time, and C) relaxation time in isolated rat cardiomyocytes. n=~90 myocytes per group from N=3 ZSF1 Lean or Obese rats; n=60 myocytes from N=2 WKY rats. Two-way ANOVA with factors of genotype and treatment.
Contractility was measured in a custom-fabricated cell chamber (IonOptix) mounted on an LSM Zeiss 880 inverted confocal microscope using either a 40 or 63× oil 1.4 numerical aperture objective and transmitted light camera (IonOptix MyoCam-S). Experiments were conducted at room temperature and field stimulation was provided at 1.0 Hz with a cell stimulator (MyoPacer, IonOptix). After 10-30 seconds of pacing to achieve steady state, five traces were recorded and analyzed. Sarcomere length was measured optically by Fourier transform analysis (IonWizard, IonOptix).

[2] = test system: ZSF1-Lean and Obese rats; test: Myocardial tubulin detyrosination after IV injection in ZSF1 rats (western blot, immunofluorescence); format: in vivo, rat; settings: for detyrosinated tubulin in myocardial tissue (words): IV injections, 30 weeks old ZSF1 rats, western blot
Protocol: FIG. 23: immunofluorescence imaging to detect tubulin detyrosination on LV tissue and evaluate changes in the abundance of detyrosinated tubulin following SVC-02 treatment.
FIG. 24: Quantification of immunofluorescence imaging analysis performed on LV tissue to evaluate changes in microtubule density (SVC-02 as VASHi).
Formalin fixed paraffin embedded (FFPE) sections on glass slides were deparaffinized by sequential washes in xylenes, and decreasing concentrations of ethanol (100%, 95%, 75%, and 50%) followed by ddH2O. Slides were placed in 1× Reveal decloaking solution (Biocare Medical, Catalog #RV1000M) for antigen retrieval. Antigen retrieval was performed using a pressure cooker (Instant Pot Pro 10-in-1 pressure cooker, 8 Quart, Amazon.com) for 15 minutes at high pressure. After cooling, slides underwent a second round of antigen retrieval in 1× Antigen Unmasking Solution, Citric Acid Based (Vector Laboratories, Catalog #H-3300-250) in a pressure cooker for 15 minutes at high pressure. Next, the slides were washed in ddH2O, followed by PBS. The slides were permeabilized with PBS+0.25% Triton X-100, followed by incubation in fish serum blocking buffer (Thermo Scientific, Catalog #37527) containing 0.1% Tween 20 for 1 hour at RT.
Sections were co-stained with Mouse monoclonal (B-5-1-2) antibody to α-tubulin (Sigma-Aldrich, Catalog #T5168; 1:50) and Rabbit polyclonal detyrosinated α-tubulin antibody (ab48389 Lot #GR3425171; 1:50) in blocking buffer for 2 days at RT. Sections were washed in PBS containing 0.1% Tween 20 (PBST) and then incubated in goat anti-rabbit conjugated to Alexa Fluor 647 and goat anti-mouse conjugated to Alexa Fluor 568 secondary antibodies along with Alexa Fluor 488 conjugated WGA (Invitrogen Catalog #W11261; final concentration 25 μg/mL) in PBST for 2 days at RT. The sections were then stained with Hoechst 33342, Trihydrochloride, Trihydrate (Invitrogen Catalog #H3570, final concentration 10 μg/mL in PBS) and mounted in Prolong Diamond Antifade Mountant (Invitrogen Catalog #P36961).
Longitudinally oriented cardiomyocytes within the myocardium were identified. Four channel Z-stacks (4×500 nm slices) of myocardial regions were imaged using a 63× oil immersion objective (1.4 NA) on a Zeiss Airyscan 880 microscope with 18.3 nm×18.3 nm pixel size. The images were background subtracted and maximum intensity projections were generated in FIJI (NIH). Rectangular ROIs were blindly drawn within the cytosolic portion of individual cardiomyocytes, while excluding the nuclei and perinuclear regions, using the WGA and Hoechst channels. The α-tubulin and detyrosinated microtubule images were extracted from the ROIs. […] The microtubule density was calculated as the percent area coverage of the binary maps within each ROI. […]

[3] = test system: ZSF1 obese rats; test: Echocardiography and invasive hemodynamics in HFpEF rats; format: in vivo, rat
From the text: FIG. 21: VASHi acutely improves diastolic function in HFpEF rats. A) Echocardiographic assessments of left ventricular diastolic function in ZSF1 Lean and Obese animals+/−SVC_02 treatment. Improved E/A ratio (marker of the function of the left ventricle of the heart) and mitral valve deceleration time indicate improved diastolic function and faster ventricular relaxation upon VASH inhibition in ZSF1 obese rats. B) Hemodynamic measurements of left ventricular diastolic function in ZSF1 Lean and Obese animals+/−SVC_02 treatment. Improved tau (left ventricular diastolic time constant) and dP/dTmin (rate of ventricular relaxation) indicate more rapid ventricular relaxation upon VASH inhibition in ZSF1 obese rats.
Echocardiography measurements were acquired Vevo2100 Ultrasound System (VisualSonics Inc., Toronto, Ontario, Canada) with a MS250 (13-24 MHz) transducer. Animals were sedated with inhaled isoflurane (2-3%). Parasternal long axis, parasternal short axis, apical four chamber, and apical two chamber views were acquired to assess cardiac structure and function. Diastology was assessed using pulse wave and tissue doppler imaging. The protocol used was based on recommendations from the European Society of Cardiology Working Group on Myocardial Function (Zacchigna S et al. 2021).
Animals were induced with isoflurane (5%) before being intubated and mechanically supported. Anesthesia plane was maintained using isoflurane (2-3%). A 2-French pressure-conductance catheter (Transonic Systems Inc., Ithaca, New York, USA) was calibrated using echo derived left ventricular volumes. The right common carotid artery was then dissected, and the catheter was advanced in a retrograde fashion into the left ventricle as previously described. Data were acquired using PowerLab and LabChart Pro (ADInstruments) and analyzed offline using LabChart Pro (ADInstruments).

| SMILES | contraction and relaxation kinetics [1] | detyrosinated tubulin in myocardial tissue (words) [2] | detyrosinated tubulin in myocardial tissue (words) ([2]; listed as SVC-02) | reduction of tubulin detyrosination in heart tissue ([2]; lean and obese animals, 8 hours following intravenous injection) | density of detyrosinated-microtubules in LV tissue ([2]; obese animals, immunofluorescence, vs vehicle) | E/A ratio ([3]; echocardiography) | mitral valve deceleration time ([3]; echocardiography) | dP/dTmin (rate of ventricular relaxation) ([3]; hemodynamics) | tau (left ventricular diastolic time constant) ([3]; hemodynamics) |
| --- | --- | --- | --- | --- | --- | --- | --- | --- | --- |
| O=C(O)CCC[C@H](NC(=O)[C@H]1O[C@@H]1C(=O)C[C@@H](Cc1ccc(OCc2ccccc2)cc1)C(=O)O)C(=O)NCCc1ccccc1 [SVC_01] | Both contraction and relaxation kinetics were improved | – | – | – | – | – | – | – | – |
| CCOC(=O)[C@H](Cc1ccc(OCC)cc1)NC(=O)[C@H]1O[C@@H]1C(=O)N[C@@H](Cc1ccc(OCC)cc1)C(=O)OCC [SVC_02] | – | efficient reduction in detyrosinated tubulin | significantly reduced detyrosinated tubulin abundance | about 60% | significant reduction in the density of detyrosinated-microtubules | Improved | Improved | Improved | Improved |
